How the values were obtained:
[1] = test system: subcutaneous xenograft of the pancreatic tumour cell line MiaPaCa-2; assay: Antitumour activity in MiaPaCa-2 subcutaneous xenograft; type: in vivo, CD1 nude mice; details: 15 mg/kg IV twice weekly, FIG. 1
Text: Study the therapeutic effect of compound 4c (MM41-tri) in comparison to MM41 and Gemcitabine in CD1 nude mice carrying a subcutaneous xenograft of the pancreatic tumour cell line MiaPaCa-2 (5×10^6 cells in the right flank) grown with Matrigel.
• 1 Inoculate SC 5×10^6 Miapaca-2 cells in the right flank (unsupplemented RPMI+Matrigel). • 2 Wait for tumours to establish subcutaneously (approx. 11 days). • 3 Measure size of the tumours weekly until they reach a mean size of 0.1 cm^3. At this stage of the development of the tumours, mice are ready to begin the therapy study. • 4 Re group mice to form 5 therapeutic groups constituted of 8 mice each, carrying approximately 0.1 cm^3 average of the tumour size per group. • 5 Administered corresponding dose of MM41 or compound 4c or Gemcitabine by IV. • Group 1: 8 mice treated with 15 mg/Kg of Gemcitabine twice weekly dose. • Group 2: 8 mice treated with 15 mg/Kg of MM41 (tetrasubstituted ND compound) twice weekly dose. • Group 3: 8 mice treated with 15 mg/Kg of Compound 4c twice weekly dose. • Group 4: 8 mice treated with 10 mg/Kg of Compound 4c twice weekly dose. • Group 5: 8 control mice treated with saline only twice weekly.

[2] = test system: Kras32 sequence from the promoter region of the kras gene; assay: FRET quadruplex stabilisation assay, Kras32; type: binding; details: compound at 1 μM, 60 mM potassium cacodylate buffer pH 7.4
Text: (§1) The ability of the naphthalene diimide compounds to stabilize quadruplex DNA sequences was investigated using a fluorescence resonance energy transfer (FRET) assay modified to be used as a high-throughput screen in a 96-well format. Several quadruplex sequences were studied (including the human telomeric G-quadruplex DNA sequence 5′-FAM-d(GGG[TTAGGG]3)-TAMRA-3′ and the duplex sequence 5′-FAM-d[…]-HEG-[…]-TAMRA-3′ (HEG linker: [(—CH2—CH2—O—)6.
(§2) The labelled oligonucleotides have attached to them the donor fluorophore FAM: 6-carboxyfluorescein and the acceptor fluorophore TAMRA: 6-carboxytetramethylrhodamine. The FRET probe sequences were diluted from stock to the correct concentration (400 nM) in a 60 mM potassium cacodylate buffer (pH 7.4) and then annealed by heating to 85° C. for 10 min, followed by cooling to room temperature in the heating block. The compound was stored as a 10 mM stock solution in DMSO; final solutions (at 2× concentration) were prepared using 10 mM HCl in the initial 1:10 dilution, after which 60 mM potassium cacodylate buffer (pH 7.4) was used in all subsequent steps. The maximum HCl concentration in the reaction volume (at a ligand concentration of 20 μM) is thus 200 μM, well within the range of the buffer used. Relevant controls were also performed to check for interference with the assay. 96-Well plates (MJ Research, Waltham, Mass.) were prepared by aliquoting 50 μl of the annealed DNA into each well, followed by 50 μl of the compound solutions. Measurements were made on a DNA Engine Opticon (MJ Research) with excitation at 450-495 nm and detection at 515-545 nm. Fluorescence readings were taken at intervals of 0.5° C. in the range 30-100° C., with a constant temperature being maintained for 30 s prior to each reading to ensure a stable value. Final analysis of the data was carried out using a script written in the program Origin 7.0 (OriginLab Corp., Northampton, Mass.). The advanced curve-fitting function in Origin 7.0 was used for calculation of ΔTm values. All determinations were performed in triplicate or better. Esds in ΔTm are ±0.1° C.

MIA-PaCa2 cells = assay: RNA-seq gene expression changes in treated MIA-PaCa2 cells; type: cell-based, human
Protocol: Cell lines were purchased from American Type Culture Collection (ATCC) and stored under liquid nitrogen. Cells were maintained in monolayer culture T75 (75 cm2 flasks) in humidified 5% CO2 atmosphere at 37° C. Cells were maintained in appropriate medium according to (ATCC) with necessary supplements including L-glutamine (Thermo Fisher Scientific Cat. No. 25030024), penicillin-streptomycin solution Hybrid-Max (Sigma Cat. No. P7539) and fetal bovine serum (FBS, Thermo Fisher Scientific Cat. No. 10270106). Cells were passaged at 80-90% confluence.
MIA-PaCa2 cells were seeded 48 hours prior to incubation, in MatTek 35 mm glass bottom dishes. Three incubation times for the compound 4c were examined: 0, 6 and 24 hrs. For RNA extraction cells (a maximum of 1×10^7 cells) were harvested by trypsinization following rinsing the cells twice in 1×PBS (without calcium chloride and magnesium chloride, purchased from Sigma Cat. No. D1408). After neutralising the medium with an equal volume of medium to trypsin cells were transferred to a sterile centrifuge tube for centrifugation for 4 minutes at 400 rpm at room temperate in order to pellet the cells. After removing the medium and trypsin following centrifugation RNA was extracted from the pellet of cells using the RNeasy Mini Kit by QIAGEN (Cat. no. 74104). RNA quality was checked by use of the NanoDrop 2000 Spectrophotometer, and a minimum quantity of ca 500 ng of RNA at >25 ng/μl concentration per replicate was verified.
RNA-Seq sequencing studies were performed by the UCL Genomics Facility using an Illumina NextSeq 500 instrument, and data obtained on RNA expression levels of all individual genes in the genomes of the cells analysed, relative to the control cells at 0 hr exposure. Four replicates were used for each time-point, thus a total of 12 individual genomes were analysed and statistics obtained for each time-point.
Data has been taken from RNA-seq data from treated MIA-PaCa2 cells, showing log-fold expression changes for genes selected from those showing the most significant down-regulation of expression as measured by RNA levels.

[3] = test system: Tloop (representing duplex DNA); assay: FRET assay, Tloop duplex DNA; type: binding; details: compound at 1 μM, 60 mM potassium cacodylate buffer pH 7.4
Text: as §1, §2

[4] = test system: Bcl-2 sequence from the promoter region of the bcl-2 gene; assay: FRET quadruplex stabilisation assay, Bcl-2; type: binding; details: compound at 1 μM, 60 mM potassium cacodylate buffer pH 7.4
Text: as §1, §2

## O=C1c2ccc3c4c(c(NCCN5CCCC5)cc(c24)C(=O)N1CCCN1CCOCC1)C(=O)N(CCCN1CCOCC1)C3=O [Compound 4c, 2,7-bis(3-morpholinopropyl)-4-((2-(pyrrolidin-1-yl)ethyl)amino)benzo[Imn][3,8]phenanthroline-1,3,6,8(2H,7H)-tetraone]
[1]
  anti-tumour response (tumour growth curve): highly significant anti-tumour response
[2]
  ΔTm Kras32: 9.6 °C
MIA-PaCa2 cells; 4c at 6 hrs
  AVIL log-fold change relative to t = 0 hrs: 3.0
  CBFA2T3 log-fold change relative to t = 0 hrs: −2.8
  FLG log-fold change relative to t = 0 hrs: 4.0
  ITGA1 log-fold change relative to t = 0 hrs: 4.5
  ITGAM log-fold change relative to t = 0 hrs: 7.0
  PRDM16 log-fold change relative to t = 0 hrs: −2.8
  SHANK2 log-fold change relative to t = 0 hrs: −1.9
  ST14 log-fold change relative to t = 0 hrs: 5.6
  TP73 log-fold change relative to t = 0 hrs: −2.4
  TREX1 log-fold change relative to t = 0 hrs: −8.3
  ZNF469 log-fold change relative to t = 0 hrs: −3.4
MIA-PaCa2 cells; 4c at 24 hrs
  AVIL log-fold change relative to t = 0 hrs: 0.5
  CBFA2T3 log-fold change relative to t = 0 hrs: −2.8
  FLG log-fold change relative to t = 0 hrs: 0.7
  ITGA1 log-fold change relative to t = 0 hrs: 0.4
  ITGAM log-fold change relative to t = 0 hrs: 2.6
  PRDM16 log-fold change relative to t = 0 hrs: −3.5
  SHANK2 log-fold change relative to t = 0 hrs: −2.0
  ST14 log-fold change relative to t = 0 hrs: 2.5
  TP73 log-fold change relative to t = 0 hrs: −1.2
  TREX1 log-fold change relative to t = 0 hrs: −2.5
  ZNF469 log-fold change relative to t = 0 hrs: −3.2
MIA-PaCa2 cells; treated MIA-PaCa2 cells
  extent of gene expression changes: changes in gene expression in a comparatively small number of genes
[3]
  ΔTm Tloop: 0.6 °C
[4]
  ΔTm Bcl-2: 13.3 °C
